Data set [1] concerns Musca domestica (WRL strain). Description: Topical application to unanaesthetised female Musca domestica. Type of data set: in vivo. The conditions noted are these: topical application in cellosolve; mortality assessed after 10 mins, 1 hr, 24 hrs and 48 hrs. How it is done:
Mortality was assessed after 10 mins, 1 hr, 24 hrs and 48 hrs.

A further data set deals with Myzus persicae. Description: Lethal activity against insects, spray test on adult Myzus on chinese cabbage leaf disc. Type of data set: in vivo. The settings on record: 10 adult Myzus on leaf disc sprayed, mortality after 2 days at 25°C. The procedure:
(§1) The activity of the compounds of the invention was tested by dissolving the compounds in acetone (5%) and then diluting in water: "Symperonic" (94.5%:0.5%) to give a water emulsion. The solution was then used to treat the following insects: Musca domestica, Plutella xylostella, Myzus persicae and Tetranychus urticae.
10 adult Myzus were placed on a leaf disc of chinese cabbage. 24 hours later the disc was sprayed with the solution containing the compound. Mortality was assessed after 2 days at 25°C.

The test system of another data set is Musca domestica. The experiment in a line: Lethal activity against insects, spray test on female Musca domestica. Format: in vivo. The settings on record: sprayed onto 20 female Musca domestica, mortality after 48 hrs at 25°C. How it is done:
as §1
20 Female Musca domestica were contained in a cardboard cyclinder with gauze over either end. A solution containing the compounds was sprayed onto the insects so enclosed and mortality assessed after 48 hrs at 25°C.

The subject of data set [2] is Coriolusversicolor, Coniophora putena, Aureobasidium pullulans and Chaetomium globosum. The experiment in a line: Antifungal testing, primary soft agar screen, inhibition of hyphae growth. The settings on record: fungus not specified per compound; for IC50: read-out: IC₅₀. Format: cell-based. How it is done:
The antifungal activity of compounds of the invention was determined using a primary soft agar screen. The concentration dependent inhibition of hyphae growth was determined for Coriolusversicolor, Coniophora putena, Aureobasidium pullulans and Chaetomium globosum.

Data set [3] in a line: Mammalian toxicity, oral, mice. Type of data set: in vivo. The settings on record: given orally to mice (Charles River CD1). The procedure: 1-(2E)-6-Methoxyimino-3-methylhex-2-enyl-2-methylbenzimidazole and 1-geranyl-2,6,7-trimethylbenzimidazole have an LD₅₀ value of approximately 200 mg when given orally to mice (Charles River CD1).
The next data set relates to Plutella xylostella. The experiment in a line: Lethal activity against insects, spray test on Plutella larvae on chinese cabbage leaf. The conditions noted are these: 7 Plutella larvae and leaf sprayed, mortality after 2 days at 25°C. Format: in vivo. The procedure: as §1
7 Plutella larvae were sprayed with the solution containing the compound and added to a chinese cabbage leaf which had been similarly sprayed and left to dry. Mortality was assessed after 2-days at 25°C.

The subject of the next data set is Tetranychus urticae. The experiment in a line: Lethal activity, spray test on infested french bean leaf discs. Type of data set: in vivo. The conditions noted are these: infested leaf discs sprayed, mortality after 2 days at 25°C. How it is done: as §1
Leaf discs of infested french bean were sprayed with the solution containing the compound. Mortality was assessed after 2 days at 25°C.

Converted amounts (≈) assume the structure as drawn.

In the case of “1-Geranyl-2-methyl-5(6)-nitrobenzimidazole”, the LD₅₀ in data set [1] is reported as under 10 µg/fly. Moreover, in the data set with Myzus persicae, the “active on Myzus persicae at 1000 ppm” value was “active”.
Turning to “1-Geranyl-5(6)-methoxy-2-methylbenzimidazole”, in the data set with Musca domestica, the “active at 1000 ppm” value is “active”. The compound further registered an LD₅₀ in data set [1] of under 10 µg/fly. Further, in the data set on Myzus persicae, the “active on Myzus persicae at 1000 ppm” value is reported as “active”. In data set [2], this compound yielded an IC₅₀ of 30 ppm.
The compound “5(6)-Chloro-geranyl-2-methylbenzimidazole” came in with an IC₅₀ in data set [2] of 30 ppm.
The same measure, in the same setting: with “5(6)-Ethoxy-1-geranyl-2-methyl-benzimidazole” the figure was 30 ppm.
As to `CC(=CCn1c(C)nc2ccccc21)CCOC(C)C` (mixture of isomers) [(E/Z)-1-(5-isopropoxy-3-methylpent-2-enyl)-2-methylbenzimidazole], the LD₅₀ in data set [1] was under 10 µg/fly.
Turning to `C/C(=C\Cn1c(C)nc2ccccc21)CCC=C(Cl)Cl` [1-, (2E)-7,7-Dichloro-3-methylhepta-2,6-dienyl,-2-methylbenzimidazole], the IC50 in data set [2] turned out to be 30 µg/mL (≈ 97 µM).
`CC(C)=CCC/C(C)=C/Cn1c(C)nc2c(C)cccc21` [1-Geranyl-2,4-dimethylbenzimidazole, 2,4-Dimethyl-1-geranylbenzimidazole]: the “active at 200 ppm” value in the data set with Musca domestica and in the data set on Myzus persicae was “active” in each case. The LD₅₀ in data set [1] is reported as under 10 µg/fly. In data set [2], the IC50 amounted to 30 µg/mL (≈ 106 µM).
For the compound `CC(C)=CCC/C(C)=C/Cn1c(C)nc2cc(C)c(C)cc21` [1-Geranyl-2,5,6-trimethylbenzimidazole], in data set [2], the IC50 came out at 30 µg/mL (≈ 101 µM).
As to `CC(C)=CCC/C(C)=C/Cn1c(C)nc2ccc(C)c(C)c21` [1-Geranyl-2,6,7-trimethylbenzimidazole], the “active at 1000 ppm” value in the data set with Musca domestica is on record as “active”. For the same compound, the LD₅₀ was under 10 µg/fly in data set [1] and “approximately 200 mg” in data set [3]. Further, the “active on Myzus persicae at 1000 ppm” value with Myzus persicae is listed as “active”. For the same compound, in data set [2], the IC50 came to 30 µg/mL (≈ 101 µM).
As for `CC(C)=CCC/C(C)=C/Cn1c(C)nc2c([N+](=O)[O-])cccc21` [1-Geranyl-2-methyl-4-nitrobenzimidazole], the “active at 1000 ppm” value in the data set with Musca domestica is reported as “active”. The LD₅₀ in data set [1] is on record as under 10 µg/fly. Further, in the data set on Myzus persicae, the “active at 200 ppm” value is “active”. The IC50 in data set [2] was 30 µg/mL (≈ 95.7 µM).
For the compound `C=CCCC(C)=CCn1c(C)nc2ccccc21` [1-[3-Methylhepta-2,6-dienyl]-2-methylbenzimidazole], the IC50 in data set [2] amounted to 30 µg/mL (≈ 125 µM).
Regarding `CON=CCC/C(C)=C/Cn1c(C)nc2ccccc21` [1-[(2E)-6-Methoxyimino-3-methylhex-2-enyl]-2-methybenzimidazole], the LD₅₀ in data set [1] is recorded as under 10 µg/fly; in data set [3] it was “approximately 200 mg”.
Turning to `C=CCCC=CCn1c(C)nc2ccccc21` [1-[Hepta-2,6-dienyl]-2-methylbenzimidazole], the IC50 in data set [2] came out at 30 µg/mL (≈ 133 µM).
Regarding `CC(C)=CCC/C(C)=C/Cn1c(Cl)nc2ccccc21` [2-Chloro-1-geranylbenzimidazole], the “active at 1000 ppm” value in the data set on Musca domestica is listed as “active”. The same compound had an LD₅₀ in data set [1] of under 10 µg/fly. For the same compound, the “active on Myzus persicae at 1000 ppm” value in the data set on Myzus persicae is reported as “active”.
As for `C/C(=C\Cn1c(C)nc2ccccc21)CCC=NOCc1ccccc1` [2-Methyl-1-[(2E)-3-methyl-6-benzyloxyiminohex-2-enyl]benzimidazole], the IC50 in data set [2] is 30 µg/mL (≈ 86.3 µM).
`CC(C)=CCC/C(C)=C/Cn1c(C)nc2c(Cl)cc(Cl)cc21` [4(7),6(5)-Dichloro-1-geranyl-2-methylbenzimidazole]: the IC₅₀ in data set [2] is reported as 30 ppm.
As for `CC(C)=CCC/C(C)=C/Cn1c(C)nc2c(N)cccc21` [4-Amino-1-geranyl-2-methylbenzimidazole], the “active at 1000 ppm” value in the data set on Musca domestica was “active”. For the same compound, the LD₅₀ in data set [1] was under 10 µg/fly. Moreover, the IC50 in data set [2] worked out at 30 µg/mL (≈ 106 µM).
As to `COC(C)(C)CCC/C(C)=C/Cn1c(C)nc2c(C)c(C)ccc21` [(2E)-1-(7-Methoxy-3,7-dimethyloct-2-enyl)-2,4,5-trimethylbenzimidazole], the “active at 200 ppm” value with Musca domestica and with Myzus persicae was “active” throughout. The same compound came in with an LD₅₀ in data set [1] of under 10 µg/fly. The “active at 1000 ppm” value in the data set with Plutella xylostella is “active”.
For `COC(C)(C)CCC/C(C)=C/Cn1c(C)nc2c(C)cccc21` [(2E)-1-(7-Methoxy-3,7-dimethyloct-2-enyl)-2,4-dimethylbenzimidazole], the “active at 200 ppm” value in the data set on Musca domestica and in the data set on Myzus persicae was “active” each time. The compound also displayed an LD₅₀ in data set [1] of under 10 µg/fly. Further, the “active against Tetranychus urticae at 200 ppm” value with Tetranychus urticae is recorded as “active”. In data set [2], the IC50 is 30 µg/mL (≈ 95.4 µM).
For the compound `COC(C)(C)CCC/C(C)=C/Cn1c(C)nc2ccc(C)c(C)c21` [(2E)-1-(7-Methoxy-3,7-dimethyloct-2-enyl)-2,6,7-trimethylbenzimidazole], the IC50 in data set [2] was determined as 30 µg/mL (≈ 91.3 µM).
In data set [1], `CC=CCC/C(C)=C/Cn1c(C)nc2ccccc21` [(2E)-2-Methyl-1-(3-methlocta-2,6-dienyl)benzimidazole] came in with an LD₅₀ of under 10 µg/fly. Also, the IC50 in data set [2] is 30 µg/mL (≈ 118 µM).
On to `CC(C)=CCC/C(C)=C/CC/C(C)=C/Cn1c(C)nc2c(C)cccc21` [(2E,6E)-2,4-dimethyl-1-(3,7,11)-(trimethyldodeca-2,6,10-trienyl)benzimidazole], for which the IC50 in data set [2] stood at 30 µg/mL (≈ 85.6 µM).
For `COc1ccc2c(c1)nc(C)n2C/C=C(\C)CC/C=C(\C)CCC=C(C)C` [(2E,6E)-5-Methoxy-2-methyl-1-(3,7,11-trimethyldodeca-2,6,10-trienyl)benzimidazole], the IC50 in data set [2] came out at 30 µg/mL (≈ 81.8 µM).
With `C/C(=C\Cn1c(C)nc2ccccc21)CCCC(C)(C)OC(=O)Nc1ccccc1` [(5E)-7-(2-Methylbenzimidazole-1-yl)-1,1,5-trimethylhept-5-enyl-N-phenyl-carbamate], the LD₅₀ in data set [1] is recorded as under 10 µg/fly. Also, in data set [2], the IC50 amounted to 30 µg/mL (≈ 74 µM).
Take `COC(=O)c1cccc2nc(C)n(C/C=C(\C)CCC=C(C)C)c12` [Methyl 1-geranyl-2-methyl-benzimidazole-7-carboxylate]: the IC50 in data set [2] was found to be 30 µg/mL (≈ 91.9 µM).

These data come from patent publication EP0269230A1, “Heterocyclic compounds” (priority 1986, dated 1988).
